Data: paper PMC10574185, “Encapsulation and Biological Activity of Hesperetin Derivatives with HP-β-CD” (Molecules, 2023)

Key:
HaCaT cells = experiment: MTT cytotoxicity assay on HaCaT keratinocytes; assay type: cell-based, human
Description: HaCaT keratinocyte cells were exposed to chemical compounds at nine different concentrations (from 3.9 to 995.6 µg/mL) in four replicates of each concentration for 24 and 48 h.
All compounds were dissolved in sterile DMSO (Merck Life Science, Warsaw, Poland) and were sterile-filtered with 0.22 µm pore size sterile disposable syringe filters.
HaCaT cell line (the normal immortalised human keratinocytes) used in the study derived from the 35th passage (the original material created by Prof. Dr. Petra Boukamp and Dr. Norbert Fusenig) was purchased from Cell Line Service GmbH (Eppelheim, Germany). The cells were cultured and propagated as described previously.
The cytotoxicity was assessed with MTT assay according to methodology applied previously.
The following final concentrations (in four replicates per experiment) of the test compounds were tested (µg/mL): 3.9; 7.8; 15.6; 31.1; 62.2; 124.5; 248.9; 497.8, and 995.6. […] Three independent experiments were conducted. The vehicle was cells in the culture medium. The assay was conducted for 24 h and 48 h.

[1] = test system: Listeria monocytogenes ATCC 19111; experiment: Antagonistic activity, diffusion-well method; assay type: cell-based; settings: ATCC19111, compounds at 2.5 µM, wells 8 mm, 37 °C, 18 h
Description: (§1) The antimicrobial activity of the HESP, ligands ([…], and HTSC), and complexes with HP-β-CD were tested against Gram-positive bacteria (Listeria monocytogenes ATCC 19111, Listeria monocytogenes ATCC 19112, Listeria monocytogenes ATCC 19115, Staphylococcus aureus ATCC 29737, Staphylococcus aureus ATCC 25923, Staphylococcus aureus ATCC 27734) and Gram-negative bacteria (Escherichia coli ATCC 11303, Escherichia coli ATCC 35218, Salmonella Typhimurium, ATCC 14028, Salmonella Enteritidis ATCC 13076, Salmonella Choleraesuis ATCC 7001). The strains were activated from cryobanks by passaging them twice onto a Nutrient Broth (Merck, Darmstadt, Germany). All bacteria were grown for 24 h at 37 °C. Antagonistic activity of the following chemical compounds: […], and […] determined by the diffusion-well method. The test strains were plated on Mueller-Hinton Agar (Merck, Darmstadt, Germany) in the form of a surface layer of bacteria according to the procedures recommended by the European Committee on Antimicrobial Susceptibility Testing EUCAST [74]. The detailed methodology was described in the paper by Sykuła et al.. Bacterial inoculum was prepared from an overnight solid culture. The inoculum density was 1-2 × 10^8 CFU/mL, which corresponds to a McFarland standard of 0.5. The samples of the test compounds were dissolved in 5% (w/w) DMSO to obtain a concentration of 500 μM, and were sterilized using filtration (filter pore width 0.2 μm; (Sartorius AG, Gottingen, Germany). The bacteria inoculum test culture (0.1 mL) smear conducted was on sterile Mueller-Hinton Agar (Merck, Darmstadt, Germany) plates. […] A total of 50 μL of the prepared solutions of the tested compounds at a concentration of 500 μM were added to the wells. The plates prepared in this way were incubated at 37 °C for 18 h. After this time, zones of growth inhibition were read and the result was given in mm. The experiment was carried out in two independent repetitions. The results were expressed in average values and standard deviation. The results were analyzed using a one-way ANOVA and post-hoc Tukey's test.

[2] = test system: Listeria monocytogenes ATCC 19112; experiment: Antagonistic activity, diffusion-well method; assay type: cell-based; settings: ATCC19112, compounds at 2.5 µM, wells 8 mm, 37 °C, 18 h
Description: as §1

[3] = test system: Listeria monocytogenes ATCC 19115; experiment: Antagonistic activity, diffusion-well method; assay type: cell-based; settings: ATCC19115, compounds at 2.5 µM, wells 8 mm, 37 °C, 18 h
Description: as §1

[4] = test system: Salmonella Choleraesuis ATCC 7001; experiment: Antagonistic activity, diffusion-well method; assay type: cell-based; settings: Salmonella enterica, compounds at 2.5 µM, wells 8 mm, 37 °C, 18 h
Description: as §1

[5] = test system: Salmonella Enteritidis ATCC 13076; experiment: Antagonistic activity, diffusion-well method; assay type: cell-based; settings: Salmonella enterica, compounds at 2.5 µM, wells 8 mm, 37 °C, 18 h
Description: as §1

[6] = test system: Salmonella Typhimurium ATCC 14028; experiment: Antagonistic activity, diffusion-well method; assay type: cell-based; settings: Salmonella enterica, compounds at 2.5 µM, wells 8 mm, 37 °C, 18 h
Description: as §1

[7] = test system: Staphylococcus aureus ATCC 27734; experiment: Antagonistic activity, diffusion-well method; assay type: cell-based; settings: ATCC27734, compounds at 2.5 µM, wells 8 mm, 37 °C, 18 h
Description: as §1

[8] = test system: Escherichia coli ATCC 11303; experiment: Minimal inhibition concentration (dilution + diffusion-well); assay type: cell-based; settings: ATCC11303, 37 °C, 18 h
Description: (§2) The MIC was performed for compounds and strains sensitive to their action in the antagonistic test. Minimum inhibitory concentration was determined by combining the dilution method with the diffusion-well method. Test compounds at a concentration of 500 μM were prepared in 5% (w/w) DMSO. Surface layer of microorganisms, against which antagonistic activity was noted, were prepared in the same way as for the antagonistic test. Then, two-fold sequential dilutions of the test compounds in the range of 500 µM to 62.5 µM were prepared. Wells with a diameter of 8 mm cut in the Mueller–Hinton Agar (Merck, Darmstadt, Germany) with the test strain were added with 50 µL of the prepared dilutions, which corresponded to the following concentrations of the tested compounds: […], 1.25 mM, 0.625 mM, and […]. Petri dishes prepared in this way were incubated at 37 °C for 18 h. After a given time, the MIC value was read. The MIC concentration expressed in µM was the first concentration of the tested compounds at which growth inhibition of the test strain was observed.

[9] = test system: Staphylococcus aureus ATCC 25923; experiment: as above; assay type: cell-based; settings: ATCC25923, 37 °C, 18 h
Description: as §2

[10] = test system: Staphylococcus aureus ATCC 29737; experiment: as above; assay type: cell-based; settings: ATCC29737, 37 °C, 18 h
Description: as §2

MIC [8]: 2.5 µM
MIC [9]: 2.5 µM
MIC [10]: 2.5 µM
Compound: CC(O)COC[C@H]1O[C@@H]2O[C@H]3[C@H](O)[C@@H](O)[C@@H](O[C@H]4[C@H](O)[C@@H](O)[C@@H](O[C@H]5[C@H](O)[C@@H](O)[C@@H](O[C@H]6[C@H](O)[C@@H](O)[C@@H](O[C@H]7[C@H](O)[C@@H](O)[C@@H](O[C@H]8[C@H](O)[C@@H](O)[C@@H](O[C@H]1[C@H](O)[C@H]2O)O[C@@H]8COCC(C)O)O[C@@H]7COCC(C)O)O[C@@H]6COCC(C)O)O[C@@H]5COCC(C)O)O[C@@H]4COCC(C)O)O[C@@H]3COCC(C)O (stereo partly drawn) [HP-β-CD, (2-Hydroxypropyl)-β-cyclodextrin]
cytotoxicity (maximum over tested concentrations) (HaCaT cells; 24 h, 3.9-995.6 µg/mL): up to 6.6% ± 7.2
Non-cytotoxic concentration (IC0) (HaCaT cells; 24 h exposure): ≤ 31.1 µg/mL
Non-cytotoxic concentration (IC0) (HaCaT cells; 48 h exposure): ≤ 3.9 µg/mL
zone of inhibition at 2.5 µM [1]: 0 mm
zone of inhibition at 2.5 µM [2]: 0 mm
zone of inhibition at 2.5 µM [3]: 0 mm
zone of inhibition at 2.5 µM [4]: 0 mm
zone of inhibition at 2.5 µM [5]: 0 mm
zone of inhibition at 2.5 µM [6]: 0 mm
zone of inhibition at 2.5 µM [7]: 0 mm
